The text below walks through data of US10987357B2, “Aerosolized fluoroquinolones and uses thereof” (Horizon Orphan, LLC, priority 2005, dated 2021).

“And” between values parts separate entries of the source, which are not always exact repeats. Identical values can stand only once. Counter-ions that a name gives are not always drawn. Like-named read-outs stand apart in the source and are kept apart here.

The conditions of data set [1]: cited from earlier work.
For data set [2] the following is noted: in vivo. How it is done: In the second test, the tolerability and taste of a small aerosol sample from a 0.5 ml aliquot of the test formulation was determined in a single healthy human volunteer, following nebulization in a PARI eFlow nebulizer (Table 12).
The tolerability and taste of the drug during a very brief administration period and for a period of 10 minutes post administration were monitored. Tolerability parameters were of the following types: (i) cough, cough sensation, or sneezing (ii) irritation, burning or tightness of throat, (ii) irritation or runniness in nasal passages or eyes, (iii) irritation, burning or tightness of the lungs or shortness of breadth, and (iv) dizziness, headache, nausea or other systemic effects.

The test system of data set [3] is Streptococcus pneumonia (Sp). The following applies: Table 6; cited from earlier work.
The subject of a further data set is MSSA. The following applies: Table 6; cited from earlier work.
Data set [4] relates to methicillin resistant Staphylococcus aureus (MRSA). The following applies: Table 6; cited from earlier work.
The subject of data set [5] is Pseudomonas aeruginosa (Pa). The following applies: cited from earlier work.
The conditions of data set [6]: in vivo; cited from earlier work.
For data set [7] the following is noted: 750 mg oral dose; cited from earlier work.
In data set [8] the test system is P. aeruginosa strain PAM 1723. The data set can be described thus: Mouse lung infection efficacy model. The following applies: Pseudomonas aeruginosa, PAM1723, in Mus musculus.
Protocol: The inoculum is adjusted to ca. 5×10^6 CFU/ml by correlation of absorbance at 600 nm with predetermined plate counts. […] On day 5, mice are infected by an intratracheal instillation of 0.05 ml of inoculum while under isoflurane anesthesia (5% isoflurane in oxygen running at 4 L/min). […] Mice are sacrificed 1 and 4 hours after treatment, their lungs removed, homogenized and plated to determine colony counts.
For data set [9] the following is noted: in vivo; cited from earlier work. This is another data set of the same source.
Data set [10] can be described thus: Gemifloxacin formulations with organic bases: pH and osmolality. The data set is classed as physicochemical. The following applies: before pH adjustment.
Text: (§1) It was filtered through a 0.45 micron filter.
as §1, §1, §1, §1

For the compound `CCC(=O)O[C@H]1[C@H](O[C@@H]2[C@@H](C)[C@H](O[C@H]3C[C@@](C)(OC)[C@@H](O)[C@H](C)O3)[C@@H](C)C(=O)O[C@H](CC)[C@@](C)(O)[C@H](O)[C@@H](C)C(=O)[C@H](C)C[C@@]2(C)O)O[C@H](C)C[C@@H]1N(C)C` [erythromycin estolate], the “solubility as fraction of that of the free base” value in data set [1] was “approximately 1/12”.

In the case of `O=C(O)c1cn(C2CC2)c2cc(N3CCNCC3)c(F)cc2c1=O` [Ciprofloxacin], the “Aerosol Tolerability and Taste” value in [2] is recorded as “very strong, bitter unpleasant”. Also, in [3], the “SP MIC90” value was 2 µg/mL. Moreover, the “MSSA MIC90” value with MSSA was 1 µg/mL. In addition, in [4], the “MRSA MIC90” value was 64 µg/mL. In addition, the “Pa MIC90” value in data set [5] (Table 6) is 8 µg/mL. Also, in [5], the “rank of potency against Pa” value is “most potent”. Also, the “penetration into lung tissues” value in data set [6] is given as “much less efficiently than levofloxacin”. The “peak concentration, serum” value in data set [7] was approximately 4.2 µg/mL. Moreover, in data set [7], the “time of peak drug concentration, serum” value was 1.5 h. Further, the log reduction at 25 mg/kg in [8] (1 h, read-out: DeltaLOG CPU 1 hr, route IT, dose 25 mg/kg, 1 hr post-drug administration) stood at 2.32; in data set [8] (4 h, read-out: DeltaLOG CPU 4 hr, route IT, dose 25 mg/kg, 4 hr post-drug administration) it was 1.45; in [8] (ip, 1 h, read-out: DeltaLOG CPU 1 hr, route IP, dose 25 mg/kg, 1 hr post-drug administration), 1.59; in [8] (ip, 4 h, read-out: DeltaLOG CPU 4 hr, route IP, dose 25 mg/kg, 4 hr post-drug administration), 0.41.

`CC1COc2c(N3CCN(C)CC3)c(F)cc3c(=O)c(C(=O)O)cn1c23` (racemic) [Ofloxacin]: the “Aerosol Tolerability and Taste” value in [2] is recorded as “bitter chemical taste, mild cough sensation”. Also, the distribution into sputum in [9] was 79%.

On to `CO/N=C1\CN(c2nc3c(cc2F)c(=O)c(C(=O)O)cn3C2CC2)CC1CN` (centres unmarked) [Gemifloxacin mesylate], for which the “pH of filtered solution in water” value in data set [10] is 4.28 and 4.21 and 4.40 and 4.32 and 4.20.
